Patent US20240400572A1, “COMPOUNDS AND METHODS FOR TREATING CANCERS THAT ARE MGMT DEFICIENT REGARDLESS OF MMR STATUS” (Yale University, priority 2021, published 2024)
“Also recorded” adds a separate entry of the source.

Assays:
[1] = tested on: Isogenic glioma (Ln 229) cells, MGMT−/MMR−; assay: Clonogenic Survival Assay (FIG. 9); assay type: cell-based, human; details: identical concentrations of test compound
Protocol: Clonogenic Survival Assay (FIG. 9): Isogenic glioma (Ln 229) cells were pretreated with the test drug in culture for 48-72 hours at the specified dilutions. Cells were then transferred in media without drug to 6-well plates in triplicate at 3-fold dilutions ranging from 9,000 to 37 cells per well. After 14 days, plates were washed with PBS and stained with crystal violet. Colonies were counted by hand. Counts were normalized to plating efficiency of the corresponding treatment condition.

[2] = tested on: LN229 MGMT+/−, MMR+/− cells; assay: Clonogenic cell survival assay; details: cell status given in the value
Protocol: Cells were trypsinized, washed, counted, and diluted in a medium containing various concentrations of drug. They were then immediately seeded in six-well plates in triplicate at three-fold dilutions, ranging from 9000 to 37 cells per well. Depending on colony size, these plates were kept in the incubator for 10 to 14 days. After incubation, colonies were washed in phosphate-buffered saline (PBS), stained with crystal violet, counted, and quantified.

[3] = tested on: LN229 MGMT−/MMR+ and MGMT−/MMR− cells; assay: IR alkaline comet assay; assay type: cell-based, human
Protocol: IR Alkaline Comet Assay. Assay was performed utilizing the CometAssay Kit (Trevigen) according to the alkaline assay protocol, with the addition of slide irradiation post-lysis. Cells were trypsinized, washed with 1×PBS, added to melted Comet LMAgarose (Trevigen), and spread on Trevigen CometSlides at a density of 1000 cells per sample in 50 μL. Lysis solution (Trevigen) with 10% DMSO was added overnight at 4° C. Slides were removed from lysis buffer and irradiated to 0 or 10 Gy using an XRAD 320 X-Ray System (Precision X-Ray) at 320 kV, 12.5 mA, and 50.0 cm SSD, with a 2 mm Al filter and 20 cm×20 cm collimator. Slides were then placed in alkaline buffer (200 mM NaOH, 1 mM EDTA) for 45 min, followed by electrophoresis in 850 mL alkaline buffer for 45 min at 4° C. Slides were washed and stained with SYBR gold (Invitrogen) per Trevigen assay protocol. Slides were imaged on a Cytation 3 imaging reader (BioTek), and comets were analyzed using CometScore 2.0 software (TriTek).
We used a well-established comet assay adapted for ICL detection to determine if ICLs were formed in MGMT− cells treated with KL-50 (4a) (FIG. Z3, A and B). In this assay, cells were sequentially exposed to genotoxins and ionizing radiation, and then analyzed by single cell alkaline gel electrophoresis. Attenuation of the IR-induced comet tail is indicative of ICL formation.

Cn1nnc2c(C(N)=O)ncn2c1=O [TMZ, temozolomide, reference compound]
cells survived [1]: about 100% | clonogenic survival (in words) [2]: negligible activity in MGMT+LN229 cells, irrespective of MMR status; also recorded: robust tumor cell killing in MGMT−, MMR+ cells that was abolished in isogenic cells lacking MMR | effect on IR-induced comet tail, ICL detection (in words) ([3]; MGMT−/MMR+ cells, 200 μM for 24 h, 10 Gy): did not reduce DNA migration following IR | comet tailing in the absence of IR (in words) ([3]; MGMT−/MMR+ cells, TMZ and KL-50 200 μM, MMC 0.1 or 50 μM): induced tailing | DNA damage in unirradiated samples (in words) ([3]; MGMT−/MMR− cells, 200 μM, 2, 8 or 24 h, 0 Gy): induced maximal damage at 2 h, which decreased over time | rate of ICL formation, DNA mobility after IR (in words) ([3]; MGMT−/MMR− cells, 200 μM, 2, 8 or 24 h, 10 Gy): did not induce a statistically significant decrease in DNA migration within 24 h
